Laboratory results as given in US20220175917A1, “COMBINATION OF IAP INHIBITOR AND IMMUNE CHECKPOINT INHIBITOR” (CHIA TAI TIANQING PHARMACEUTICAL GROUP CO., LTD., priority 2019, published 2022).

Columns and labels:
[1] = tested on: mouse triple-negative breast cancer EMT6 cell line; assay: In-vivo drug efficacy study 1: EMT6 transplanted BALB/c mouse model, tumor volume; conditions: for Tumor volume Day 0: Day 0 (start of dosing)
Method: To evaluate the tumor immunotherapeutic effect of test drugs in the mouse triple-negative breast cancer EMT6 cell line (EMT6 is from ATCC, cell No.: CRL-2755) transplanted BALB/c mouse model.
BALB/c mice, female, 6-7 weeks old, weighing about 19.1-22.6 g, were housed in separated ventilated boxes with constant temperature and humidity. The feeding room was under the following conditions: temperature: 20-26° C., humidity: 40-70%, ventilation: 10-20 times/h, and light/dark cycle: 12 h/12 h. The Co-60 radiation-sterilized complete pellet feed for mice was supplied continuously and can be taken freely without limitation, and the drinking tap water (used after autoclaving) was supplied continuously by the water bottle and can be taken freely. A total of 144 mice purchased from Shanghai Lingchang Biotechnology Co., Ltd. were used for the study. The BALB/c mice were inoculated with EMT6 cells subcutaneously to establish murine breast cancer models with subcutaneously-transplanted tumors. The mice were administered when the mean tumor volume reached about 97.3 mm^3. The test compounds were administered orally once every 3 days at a dose of 50 mg/kg. PD1 mAb (from BioXcell, cat No.: BP0146, batch No.: 695318A1B, clone No.: RMP1-14) was administered intraperitoneally once every 3 days at a dose of 10 mg/kg. Tumor volume was measured every 3 days with a two-dimensional caliper, and the volume was measured in mm^3 and calculated according to the following formula: V=0.5 a×b^2, where a and b are the long and short diameters, respectively, of the tumor. Anti-tumor efficacy was determined by dividing the mean tumor increase volume of compound-treated animals by the mean tumor increase volume of untreated animals.

[2] = tested on: mouse colon cancer MC38 cell line; assay: In vivo efficacy study 2: MC38 transplanted BALB/c mouse model, tumor volume; conditions: combination Example 2 50 mg/kg orally twice a week + Anti-PD1 10 mg/kg intravenously once a week, MC38, BALB/c mice
Source text: To evaluate the tumor immunotherapeutic effect of test drugs in the mouse colon cancer MC38 cell line (from Obio Technology (Shanghai) Co., Ltd.) transplanted BALB/c mouse model.
BALB/c mice, female, 6-7 weeks old, weighing about 18-22 g, were kept in a special pathogen-free environment and in separated ventilated cages (3-5 mice per cage). All cages, bedding and water were disinfected prior to use. All animals had free access to standard certified commercial laboratory diets. A total of 48 mice purchased from Shanghai Slac Laboratory Animal Co., Ltd. were enrolled. Each mouse was implanted subcutaneously in the right flank with mouse colon cancer MC38 cells (2×10^5 cells in 0.1 mL of phosphate buffered saline) for tumor growth. The mice were administered when the mean tumor volume reached about 70 mm^3. Test compounds were administered orally twice a week (morning and afternoon) at a dose of 50 mg/kg; PD-1 antibody (from BioXcell, cat. No.: BP0146, batch No.: 640517M2B) was administered intravenously once a week at a dose of 10 mg/kg. Tumor volume was measured […] with a two-dimensional caliper, and the volume was measured in mm^3 and calculated according to the following formula: V=0.5 a×b^2, where a and b are the long and short diameters, respectively, of the tumor. Anti-tumor efficacy was determined by dividing the mean tumor increase volume of compound-treated animals by the mean tumor increase volume of untreated animals.

[3] = Example 2 alone, 50 mg/kg orally once every 3 days, EMT6 subcutaneous, BALB/c mice
[4] = combination Example 2 50 mg/kg orally + Anti-PD1 10 mg/kg intraperitoneally, each once every 3 days, EMT6, BALB/c mice

## CN[C@@H](C)C(=O)N[C@H](C(=O)N1CCC[C@H]1Cn1cc(C(C)=O)c2cc(Cl)ccc21)C1CCCCC1 [Example 2]
[1]; [3]
  Tumor volume Day 0: 97.3 mm^3
  Tumor volume Day 7: 355.5 mm^3
  Tumor volume Day 14: 1097.7 mm^3
  Tumor volume Day 25: 2225.8 mm^3
[1]; [4]
  Tumor volume Day 0: 97.3 mm^3
  Tumor volume Day 7: 332.4 mm^3
  Tumor volume Day 14: 174.2 mm^3
  Tumor volume Day 25: 31.5 mm^3
[2]; Day 0 (start of dosing)
  Tumor volume Day 0: 51.6 mm^3
[2]; Day 5
  Tumor volume Day 5: 140.7 mm^3
[2]; Day 12
  Tumor volume Day 12: 215.5 mm^3
[2]; Day 20
  Tumor volume Day 20: 427.1 mm^3
